Experimental data as given in patent publication US9359371B2, “Bicyclic substituted pyrimidine compounds” (Xuanzhu Pharma Co., Ltd., priority 2012, dated 2016).
Like-named read-outs stand apart in the source and are kept apart here.

How the values were obtained:
PDE-5A enzyme = PDE-5A enzyme (Homo sapiens (Human), UniProt O76074); assay: Caliper Mobility-Shift PDE-5A Assay; assay type: biochemical; details: Table 1; Avanafil value is the control
Description: Experiment 1: Measurement of Enzymatic Activity In Vitro
PDE-5A enzyme: humanized PDE-5 enzyme, SignalChem, Cat#93-31G-20.
Method: enzyme assay, Caliper Mobility-Shift PDE-5A Assay:
The test compound was accurately weighed, dissolved in DMSO, mixed thoroughly and formulated into 10 mM.
(§1) The maximum final concentration of the compound was 10 μM. The plate was incubated at 30° C. for 1 h, and 20 μL of 70 μM EDTA was then added to stop the reaction. 26 μL of solution of each well was transferred to a 384-well plate. The conversion was read on a EZ reader II. The inhibition rate was calculated by the formula below, and used to calculate IC50 by Prism 5.0 Inhibition rate=[Conversion (ZPE)−Conversion (sample)]×100/[Conversion (ZPE)−Conversion (HPE)]
Note: HPE: control without enzyme; ZPE: control without a test compound

[1] = target: PDE-5 enzyme (human blood platelets) (Homo sapiens (Human), UniProt O76074); assay: PDE-5 enzyme assay, [3H]cGMP; assay type: biochemical; details: Table 2; human blood platelet enzyme; read-out: IC50 on PDE-5
PDE-11 = PDE-11 (Homo sapiens (Human), UniProt Q9HCR9); assay: Caliper Mobility-Shift PDE-11 Assay; assay type: biochemical; details: Table 4; maximum final concentration 10 μM
Description: Experiment 4: Measurement of Pharmacological Activity on PDE-11 Enzyme In Vitro
Method: enzyme assay, Caliper Mobility-Shift PDE-11 Assay
The test compound was accurately weighed, dissolved in DMSO, mixed thoroughly and formulated into 10 mM. The above stock solution was diluted to a concentration of 0.5 mM with DMSO, and then was gradiently diluted by a dilution factor of 3.162, resulting in 11 concentrations in total.
as §1, with “To a 96-well plate, 20 μL of 10 μM FL-cGMP as the substrate was added; then 1 μL solution of the compound in DMSO or DMSO solution without compound was added; and then 29 μL of 0.28 ng/μL PDE-11 enzyme buffer (100 mM Hepes pH 7.5, 5 mM MgCl2, 0.002% Brij-35) was added. The maximum” for “The maximum”, “II. The Inhibition rate was” for “II. The inhibition rate was”
Note: HPE: control without enzyme; ZPE: control without compound

[2] = Pharmacokinetics (PK) in SD rats; assay type: in vivo; details: rat; for bioavailability: read-out: F % (absolute bioavailability)
Description: Experiment 9: Assay of Pharmacokinetics (PK) of the Compounds of the Present Invention in SD Rats
Compound 1-54 of the present invention were prepared by the methods described in Example 1 to Example 54 of the present invention.
The control drug Avanafil, of which the structure was stated above, was purchased commercially.
Collection of the rat's blood: The animal was fixed. The tail was warmed with a water bath 10 min before the collection time. About 200 μL of whole blood was collected from the tail vein. The collected blood was collected into anticoagulant tubes containing heparin sodium. The blood samples were centrifuged at 4° C. by 8000 rpm for 6 min to give the plasma samples, which should be prepared within 30 min after the collection of blood. The plasma samples were stored in a freezer of −80° C. until test.
The result output by Analyst 1.5.1 of AB Company was used as the concentration of the tested sample (plasma sample). The mean value, standard deviation, variable coefficient and the like were calculated by Microsoft Excel (except for the result directly output by Analyst 1.5.1). Parameters of PK were calculated by Pharsight Phoenix 6.2 software. Formula for calculating oral bioavailability: F %=AUCinf−po*Doseiv/AUCinf−iv*Dosepo.

[3] = SD, plasma, po, intragastric administration, 1 mg/kg
[4] = SD, plasma, intravenous injection, 1 mg/kg
[5] = SD, plasma, po, intragastric administration, 2 mg/kg

Chain of PDE-11 (Q9HCR9 whole entry): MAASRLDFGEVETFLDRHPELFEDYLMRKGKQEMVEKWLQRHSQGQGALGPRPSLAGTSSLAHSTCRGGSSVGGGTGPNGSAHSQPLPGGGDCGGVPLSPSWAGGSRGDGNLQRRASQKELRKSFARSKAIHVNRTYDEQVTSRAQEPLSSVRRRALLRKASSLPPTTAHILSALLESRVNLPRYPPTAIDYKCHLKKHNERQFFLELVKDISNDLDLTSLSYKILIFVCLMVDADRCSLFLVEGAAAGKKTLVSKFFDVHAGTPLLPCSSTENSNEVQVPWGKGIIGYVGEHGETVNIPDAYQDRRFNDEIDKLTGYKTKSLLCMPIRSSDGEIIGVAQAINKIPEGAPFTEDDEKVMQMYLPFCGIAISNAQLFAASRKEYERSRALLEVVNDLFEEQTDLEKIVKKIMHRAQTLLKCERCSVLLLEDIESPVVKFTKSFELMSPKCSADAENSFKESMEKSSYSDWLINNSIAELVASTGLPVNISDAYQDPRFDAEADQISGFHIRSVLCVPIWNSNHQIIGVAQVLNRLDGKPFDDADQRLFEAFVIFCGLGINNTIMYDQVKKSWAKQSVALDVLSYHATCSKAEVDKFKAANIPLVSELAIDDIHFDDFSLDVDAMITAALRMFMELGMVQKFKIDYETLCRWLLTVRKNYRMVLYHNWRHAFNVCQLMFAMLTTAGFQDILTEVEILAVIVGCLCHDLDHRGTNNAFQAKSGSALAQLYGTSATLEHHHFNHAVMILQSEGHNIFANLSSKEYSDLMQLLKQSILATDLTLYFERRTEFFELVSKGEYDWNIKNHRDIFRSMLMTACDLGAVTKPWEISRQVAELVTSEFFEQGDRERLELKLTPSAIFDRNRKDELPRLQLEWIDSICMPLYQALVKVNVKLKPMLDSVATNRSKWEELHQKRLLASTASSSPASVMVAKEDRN

| Compound | IC50 (PDE-5A enzyme) | IC50 (PDE-11) | also measured |
| --- | --- | --- | --- |
| COc1ccc(CNc2nc(N3CC4CC4C3)ncc2C(=O)NCc2ncccn2)cc1Cl (stereo not shown) [Compound 1, 2-(3-azabicyclo[3.1.0]hexan-3-yl)-4-((3-chloro-4-methoxybenzyl)amino)-N-(pyrimidin-2-ylmethyl)pyrimidine-5-formamide] | 6.04 nM | > 10000 nM | IC50 [1]: 6.04 nM |
| COc1ccc(CNc2nc(N3CC4CC4C3)ncc2C(=O)NCc2cnc(C)cn2)cc1Cl (stereo not shown) [Compound 4, 2-(3-azabicyclo[3.1.0]hexan-3-yl)-4-((3-chloro-4-methoxybenzyl)amino)-N-((5-methylpyrazine-2-yl)methyl)pyrimidine-5-formamide] | 4.63 nM | > 10000 nM |  |
| COc1ccc(CNc2nc(N3CC4CC4C3)ncc2C(=O)NCc2ccc(F)cc2)cc1Cl (stereo not shown) [Compound 5, 2-(3-azabicyclo[3.1.0]hexan-3-yl)-4-((3-chloro-4-methoxybenzyl)amino)-N-(4-fluorobenzyl)pyrimidine-5-formamide] | 17.4 nM | > 10000 nM |  |
| COc1ccc(CNc2nc(N3CC4CC4C3)ncc2C(=O)NCCN2CCOCC2)cc1Cl (stereo not shown) [Compound 6, 2-(3-azabicyclo[3.1.0]hexan-3-yl)-4-((3-chloro-4-methoxybenzyl)amino)-N-(2-morpholinylethyl)pyrimidine-5-formamide] | 4.25 nM | > 10000 nM |  |
| COc1ccc(CNc2nc(N3CC4CC4C3)ncc2C(=O)NCC2CCNCC2)cc1Cl (stereo not shown) [Compound 7, 2-(3-azabicyclo[3.1.0]hexan-3-yl)-4-((3-chloro-4-methoxybenzyl)amino)-N-(piperdin-4-ylmethyl)pyrimidine-5-formamide] |  | > 10000 nM |  |
| COc1ccc(CNc2nc(N3CCC4(CCC4)CC3)ncc2C(=O)NCc2ncccn2)cc1Cl [Compound 14, 4-((3-chloro-4-methoxybenzyl)amino)-N-(pyrimidin-2-ylmethyl)-2-(7-azaspiro[3.5]nonan-7-yl)pyrimidine-5-formamide] |  | > 10000 nM | AUC(0-inf) [2, 3]: 36 ng·h/mL; Cmax [2, 3]: 5.2 ng/mL; half-life [2, 3]: 171 min; bioavailability [2, 3]: 15%; AUC(0-inf) [2, 4]: 237 ng·h/mL; half-life [2, 4]: 88.2 min; Cl_obs ([2]; intravenous injection, 1 mg/kg): 71 mL/min/kg; Vss_obs ([2]; intravenous injection, 1 mg/kg): 8.73 L/kg |
| COc1ccc(CNc2nc(N3CCC4(CC4)C3)ncc2C(=O)NCc2ncccn2)cc1Cl [Compound 41, 4-((3-chloro-4-methoxybenzyl)amino)-N-(pyrimidin-2-ylmethyl)-2-(5-azaspiro[2.4]heptan-5-yl)pyrimidine-5-formamide] | 22.9 nM |  | AUC(0-inf) [2, 5]: 67 ng·h/mL; Cmax [2, 5]: 43.8 ng/mL; Tmax [2, 5]: 30 min; half-life [2, 5]: 54.6 min; bioavailability [2, 5]: 17.7%; AUC(0-inf) [2, 4]: 188 ng·h/mL; half-life [2, 4]: 49.8 min; Cl_obs ([2]; intravenous injection, 1 mg/kg): 89.2 mL/min/kg; Vss_obs ([2]; intravenous injection, 1 mg/kg): 6.62 L/kg |

The next lines start with results.

| IC50 (PDE-5A enzyme) | IC50 (PDE-11) | Compound | also measured |
| --- | --- | --- | --- |
| 13.2 nM | > 10000 nM | COc1ccc(CNc2nc(N3CC4CC4C3)ncc2C(=O)N[C@H]2CCCCNC2=O)cc1Cl (stereo partly shown) [Compound 8, 2-(3-azabicyclo[3.1.0]hexan-3-yl)-4-((3-chloro-4-methoxybenzyl)amino)-N-((s)-caprolactam-3-yl)pyrimidine-5-formamide] |  |
| 23.2 nM | > 10000 nM | COc1ccc(CNc2nc(N3CC4CC4C3)ncc2C(=O)NC2CCCCCC2)cc1Cl (stereo not shown) [Compound 9, 2-(3-azabicyclo[3.1.0]hexan-3-yl)-4-((3-chloro-4-methoxybenzyl)amino)-N-cycloheptanylpyrimidine-5-formamide] |  |
|  | > 10000 nM | COc1ccc(CNc2nc(N3CCC4(CCN(C)C4)C3)ncc2C(=O)NCc2ncccn2)cc1Cl (stereo not shown) [Compound 18, 4-((3-chloro-4-methoxybenzyl)amino)-2-(7-methyl-2,7-diazaspiro[4.4]nonan-2-yl)-N-(pyrimidin-2-ylmethyl)pyrimidine-5-formamide] |  |
|  | > 10000 nM | COc1ccc(CNc2nc(N3CCC4(CC4)C3)ncc2C(=O)NCCN2CCNCC2)cc1Cl [Compound 42, 4-((3-chloro-4-methoxybenzyl)amino)-N-(2-(piperazin-1-yl)ethyl)-2-(5-azaspiro[2.4]heptan-5-yl)pyrimidine-5-formamide] |  |
|  | > 10000 nM | COc1ccc(CNc2nc(N3CCC4(CC4)C3)ncc2C(=O)N[C@H]2CC[C@H](N)CC2)cc1Cl [Compound 44, N-(trans-4-aminocyclohexyl)-4-(3-chloro-4-methoxybenzylamino)-2-(5-azaspiro[2.4]heptan-5-yl)pyrimidine-5-formamide] |  |
|  | > 10000 nM | COc1ccc(CNc2nc(N3CCC4(CC4)C3)ncc2C(=O)NCC2CCC(O)CC2)cc1Cl (stereo not shown) [Compound 47, 4-((3-chloro-4-methoxybenzyl)amino)-N-(4-hydroxycyclohexyl)methyl-2-(5-azaspiro[2.4]heptan-5-yl)pyrimidine-5-formamide] |  |
